Measured values as given in PubChem BioAssay (NCI).
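Exposure lasted 48 hours, with cells grown in 96-well plates and compounds tested at five concentrations. The concentration for 50% growth inhibition is given as GI50. TGI: concentration producing complete growth inhibition.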

Tests used:
Experiment in all cases: NCI-60 cell line screen, 48 h
HCT-15 colon = tested on: HCT-15 colon
HOP-92 NSCLC = tested on: HOP-92 NSCLC
NCI-H23 lung = tested on: NCI-H23 lung
NCI-H522 lung = tested on: NCI-H522 lung
RPMI-8226 leukemia = tested on: RPMI-8226 leukemia
SK-MEL-2 melanoma = tested on: SK-MEL-2 melanoma
SN12C renal = tested on: SN12C renal
SNB-19 CNS = tested on: SNB-19 CNS
DMS 273 small cell lung = tested on: DMS 273 small cell lung
RXF 393 renal = tested on: RXF 393 renal
UO-31 renal = tested on: UO-31 renal

| Compound | GI50 (HCT-15 colon) | TGI (HCT-15 colon) | GI50 (HOP-92 NSCLC) | TGI (HOP-92 NSCLC) | GI50 (NCI-H23 lung) | TGI (NCI-H23 lung) | GI50 (NCI-H522 lung) | TGI (NCI-H522 lung) | GI50 (RPMI-8226 leukemia) | TGI (RPMI-8226 leukemia) | GI50 (SK-MEL-2 melanoma) | TGI (SK-MEL-2 melanoma) | GI50 (SN12C renal) | TGI (SN12C renal) | GI50 (SNB-19 CNS) | TGI (SNB-19 CNS) | TGI (DMS 273 small cell lung) | TGI (RXF 393 renal) | TGI (UO-31 renal) | GI50 (RXF 393 renal) |
| --- | --- | --- | --- | --- | --- | --- | --- | --- | --- | --- | --- | --- | --- | --- | --- | --- | --- | --- | --- | --- |
| O=[N+]([O-])c1ccc(N/N=C\c2ccc(O)cc2O)nc1 | 0.828 µM | > 100 µM | 5.54 µM | > 100 µM | 3.39 µM | > 100 µM | 10.8 µM | > 100 µM | 4.21 µM | > 100 µM | 5.21 µM | > 100 µM | 3.12 µM | > 100 µM | 3.24 µM | > 100 µM |  |  |  |  |
| CSc1nc(NC2OC(CO)C(O)C(O)C2O)c(N)c(=O)[nH]1 (stereo not drawn) |  | > 100 µM |  | > 100 µM |  | > 100 µM |  | > 100 µM |  | > 100 µM |  | > 100 µM |  | > 100 µM |  | > 100 µM | > 100 µM | > 100 µM | > 100 µM |  |
| O=c1n(CC2CO2)c2ccccc2n1CC1CS1 (stereo not drawn) |  | > 100 µM |  | > 100 µM |  |  |  | > 100 µM |  | > 100 µM |  | > 100 µM |  | > 100 µM |  | > 100 µM | > 100 µM | > 100 µM | > 100 µM |  |
| COc1ccc(Nc2cnc3cc(N)ccc3n2)cc1OC |  | > 100 µM |  | 42.5 µM |  | > 100 µM |  |  |  | 86.2 µM |  | > 100 µM |  | > 100 µM |  |  | > 100 µM | > 100 µM | > 100 µM |  |
| O=C(O)c1cc2sc(C(=O)O)cc2s1 |  | > 100 µM |  | > 100 µM |  | > 100 µM |  | > 100 µM |  | > 100 µM |  |  |  | > 100 µM |  | > 100 µM | > 100 µM | > 100 µM |  |  |
| COC(=O)C(Cc1cc(OC)c(OC)c(OC)c1)(NC(=O)c1ccccc1)P(=O)(OC)OC (stereo not drawn) |  | > 100 µM |  | > 100 µM |  | > 100 µM |  | > 100 µM |  | > 100 µM |  | > 100 µM |  | > 100 µM |  | > 100 µM | > 100 µM | > 100 µM | > 100 µM |  |
| CCCCCCCCC[C@@H]1C[C@H](O)[C@H](Cc2ccccc2)N1C(=O)OC(C)(C)C |  | 33.9 µM |  | 28.9 µM |  | 31.6 µM |  | 30 µM |  | 63.3 µM |  | 30.3 µM |  | 31 µM |  | 33.5 µM | 32.8 µM | 32.2 µM | 27.4 µM |  |
| COc1cc(/C=C2\CCCC3=C2N=C2SC=NN2C3c2cc(OC)c(OC)c(OC)c2)cc(OC)c1OC (stereo not drawn) | 2.25 µM | 5.91 µM | 2.98 µM | > 100 µM |  |  | 2.72 µM | 8.51 µM |  |  | 3.46 µM | > 100 µM | 2.39 µM | 7.11 µM | 4.44 µM | > 100 µM |  | 4.74 µM |  | 2.2 µM |
| Nc1[nH]nc2c1Cc1c(n(Cc3ccc(Cl)cc3)c3ccccc13)C(=O)N2 |  | 16.8 µM |  | 31.5 µM |  | 23.9 µM |  |  |  |  |  | 34.3 µM |  | 28 µM |  |  |  | 25.9 µM | 19.4 µM |  |
